Patent US20220233472A1, “VETERINARY BROMHEXINE HYDROCHLORIDE SOLUBLE POWDER, PREPARATION METHOD AND USE THEREOF” (Qingdao Agricultural University, priority 2021, published 2022)
Where a name gives a salt, the structure may show the parent alone.

Test: Pharmacokinetic tests of bromhexine hydrochloride soluble powder in chickens
Assay type: in vivo
Conditions: oral, soluble powder at 50, 150 and 250 mg/kg·bw
Description: Pharmacokinetic tests of bromhexine hydrochloride soluble powder in chickens were carried out based on three administration dosages of 50 mg/kg·bw, 150 mg/kg·bw and 250 mg/kg·bw.

pharmacokinetic characteristic: linear pharmacokinetic characteristic
SMILES: CN(Cc1cc(Br)cc(Br)c1N)C1CCCCC1 [bromhexine, Bromhexine hydrochloride]
